Experimental findings from US20140286903A1, “Substituted Purine Nucleosides, Phosphoramidate and Phosphordiamidate Derivatives for Treatment if Viral Infections” (INHIBITEX, INC., priority 2011, published 2014) are described below.

Data set [1] deals with HCV replicon (Genotype 1b). The experiment in a line: Luciferase genotype 1b replicon potency assay. The format is cell-based, hepatitis C virus. The note with it: Hepatitis C virus, Huh-7, Huh7 luciferase-reporter genotype 1b subgenomic replicon cells; Renilla luciferase reporter activity; 50% decrease vs untreated cells. How it is done:
(§1) Further to the above Examples, representative compounds, prepared according to the examples were tested for potency in an HCV replicon assay (Genotype 1b) for activity against the virus (EC50) and toxicity to the cells (CC50).
(§2) Huh7 Replicon Cell Lines and Cell Culture Conditions: A luciferase-reporter genotype 1b subgenomic replicon cell line, and a genotype 1a full-length replicon cell line were obtained from Apath, LLC, Brooklyn, N.Y.: All cell lines were passaged twice a week by splitting 4 or 6 fold. Cells were maintained in DMEM-high glucose medium (HyClone, Logan, Utah) supplemented with 9% FBS (HyClone), 2 mM glutamine (Invitrogen, Carlsbad, Calif.), 100 U/mL PenStrep (Invitrogen). Media also contained 0.25 mg/mL of the antibiotic G-418 to maintain stable expression of the replicon (Invitrogen). Incubation was performed at 37° C. in 5% CO2 atmosphere. Replicon cell lines were used until they accumulated 15-to-18 passages, after which cells were restarted from the frozen stock. Seeding cell counts were routinely determined using an automatic Cedex HiRes cell counter (Flownomics Analytical Instruments, Madison, Wis.) or manually using INCYTO C-Chip™ Disposable Hemacytometers (Fisher Scientific, Pittsburg, Pa.).
Luciferase Genotype 1b Replicon Potency Assay. Replicon cells were seeded into white 96-well plates (Nunc/VWR) at a density of 2×10^4 cells/well in medium without G-418. A Stacker Multidrop Liquid Dispenser (MTX Lab Systems, Vienna, Va.) was employed to ensure uniform and fast cell seeding into multiple plates. 18-24 h after cell plating, inhibitors were added and cells were incubated for additional 24, 48, or 72 h (as indicated). Compounds were tested in triplicates and quadruplicates at 3× or 4× serial dilutions over a range of 0.0001-to-10 μM concentrations. HCV replication was monitored by Renilla luciferase reporter activity assay using Renilla luciferase reporter (Promega, Madison, Wis.) and a Veritas Luminometer (Turner Biosystems, Sunnyvale, Calif.). 50% and 90% inhibitory concentration (IC50 and IC90) values were calculated as the concentration of compound that results correspondingly in 50% and 90% decreases in the reporter expression as compared to untreated cells. The values were determined by non-linear regression (four-parameter sigmoidal curve fitting) analysis.

Data set [2] can be described thus: Cytotoxicity assay (CellTiter-Glo). The class given is cell-based. The note with it: human, 72 h incubation, concentration resulting in 50% luminescent signal. How it is done:
as §1, §2
Cytotoxicity Assay. Cells were seeded into 96-well plates at a density of 2×10^4 cells per well. 24 h after cell plating, 11 serial 2× compound dilutions, starting with 100 µM, were applied to the testing plates (3 repeats per compound dilution). Each testing plate was run with a “no-compound” control. Incubation with compounds was continued at 37° C. in a CO2 incubator for 72 h. To determine cell viability, the CellTiter-Glo® assay (Promega, Madison, Wis.) was performed according to the manufacturer's protocol. The compound concentration resulting in 50% luminescent signal was reported as the CC50 concentration.

`COc1nc(N)nc2c1ncn2[C@@H]1O[C@H](COP(=O)(N[C@@H](C)C(=O)OC2CCOCC2)Oc2cccc3ccccc23)[C@@H](F)[C@@]1(C)O` (stereo partly drawn) [Example 19, (2S)-Tetrahydro-2H-pyran-4-yl 2-((((2R,3R,4S,5R)-5-(2-amino-6-methoxy-9H-purin-9-yl)-3-fluoro-4-hydroxy-4-methyltetrahydrofuran-2-yl)methoxy)(naphthalen-1-yloxy)phosphorylamino)propanoate] yielded a half-inhibitory concentration (IC50) in data set [1] of 1.4 µM. In data set [2], this compound yielded a half-maximal cytotoxic concentration (CC50) at 72 h of 77 µM.

`CCOc1nc(N)nc2c1ncn2[C@@H]1O[C@H](COP(=O)(N[C@@H](C)C(=O)OCC(C)(C)C)Oc2cccc3ccccc23)[C@@H](F)[C@@]1(C)O` (stereo partly drawn) [Example 20, (2S)-Neopentyl 2-((((2R,3R,4S,5R)-5-(2-amino-6-ethoxy-9H-purin-9-yl)-3-fluoro-4-hydroxy-4-methyltetrahydrofuran-2-yl)methoxy)(naphthalen-1-yloxy)phosphorylamino)propanoate]: in data set [1], the IC50 was 0.62 µM. In addition, the CC50 at 72 h in data set [2] stood at 23 µM.

In data set [1], `CCOc1nc(N)nc2c1ncn2[C@@H]1O[C@H](COP(=O)(N[C@@H](C)C(=O)OC2CCCC2)Oc2cccc3ccccc23)[C@@H](F)[C@@]1(C)O` (stereo partly drawn) [Example 21, (2S)-Cyclopentyl 2-((((2R,3R,4S,5R)-5-(2-amino-6-ethoxy-9H-purin-9-yl)-3-fluoro-4-hydroxy-4-methyltetrahydrofuran-2-yl)methoxy)(naphthalen-1-yloxy)phosphorylamino)propanoate] displayed an IC50 of 0.4 µM. This compound had a cytotoxic concentration (CC50) at 72 h in data set [2] of 28 µM.

`CCOc1nc(N)nc2c1ncn2[C@@H]1O[C@H](COP(=O)(N[C@@H](C)C(=O)OC2CCCCC2)Oc2cccc3ccccc23)[C@@H](F)[C@@]1(C)O` (stereo partly drawn) [Example 22, (2S)-Cyclohexyl 2-((((2R,3R,4S,5R)-5-(2-amino-6-ethoxy-9H-purin-9-yl)-3-fluoro-4-hydroxy-4-methyltetrahydrofuran-2-yl)methoxy)(naphthalen-1-yloxy)phosphorylamino)propanoate] showed an IC50 in data set [1] of 0.73 µM. The compound further yielded a cytotoxic concentration (CC50) at 72 h in data set [2] of 16 µM.

Turning to `C[C@H](NP(=O)(OC[C@H]1O[C@@H](n2cnc3c(N4CCC4)nc(N)nc32)[C@](C)(O)[C@@H]1F)Oc1cccc2ccccc12)C(=O)OCC(C)(C)C` (stereo partly drawn) [Example 23, (2S)-Neopentyl 2-((((2R,3R,4S,5R)-5-(2-amino-6-(azetidin-1-yl)-9H-purin-9-yl)-3-fluoro-4-hydroxy-4-methyltetrahydrofuran-2-yl)methoxy)(naphthalen-1-yloxy)phosphorylamino)propanoate], it took 0.9 µM to reach half-maximal inhibition in data set [1] (IC50). In data set [2], this compound came in with a half-maximal cytotoxic concentration (CC50) at 72 h of 49 µM.

In turn, `C[C@H](NP(=O)(OC[C@H]1O[C@@H](n2cnc3c(N4CCC4)nc(N)nc32)[C@](C)(O)[C@@H]1F)Oc1cccc2ccccc12)C(=O)OC1CCCC1` (stereo partly drawn) [Example 24, (2S)-Cyclopentyl 2-((((2R,3R,4S,5R)-5-(2-amino-6-(azetidin-1-yl)-9H-purin-9-yl)-3-fluoro-4-hydroxy-4-methyltetrahydrofuran-2-yl)methoxy)(naphthalen-1-yloxy)phosphorylamino)propanoate] displayed an IC50 in data set [1] of 0.9 µM. The compound further displayed a CC50 at 72 h in data set [2] of 50 µM.

For `C[C@H](NP(=O)(OC[C@H]1O[C@@H](n2cnc3c(N4CCC4)nc(N)nc32)[C@](C)(O)[C@@H]1F)Oc1cccc2ccccc12)C(=O)OC1CCCCC1` (stereo partly drawn) [Example 25, (2S)-Cyclohexyl 2-((((2R,3R,4S,5R)-5-(2-amino-6-(azetidin-1-yl)-9H-purin-9-yl)-3-fluoro-4-hydroxy-4-methyltetrahydrofuran-2-yl)methoxy)(naphthalen-1-yloxy)phosphorylamino)propanoate], in data set [1], the midpoint of inhibition, the IC50, lay at 0.95 µM. In addition, the CC50 at 72 h in data set [2] is 33 µM.

With `COc1nc(N)nc2c1ncn2[C@@H]1O[C@H](COP(=O)(N[C@H](C(=O)OCc2ccccc2)C(C)C)Oc2cccc3ccccc23)[C@@H](F)[C@@]1(C)O` (stereo partly drawn) [Example 26, (2S)-Benzyl 2-((((2R,3R,4S,5R)-5-(2-amino-6-methoxy-9H-purin-9-yl)-3-fluoro-4-hydroxy-4-methyltetrahydrofuran-2-yl)methoxy)(naphthalen-1-yloxy)phosphorylamino)-3-methylbutanoate], in data set [1], the IC50 is 4 µM. Further, the half-maximal cytotoxic concentration (CC50) at 72 h in data set [2] was determined as 14 µM.

`COc1nc(N)nc2c1ncn2[C@@H]1O[C@H](COP(=O)(N[C@@H](C)C(=O)OCC(C)(C)C)N[C@@H](C)C(=O)OCC(C)(C)C)[C@@H](F)[C@@]1(C)O` [Example 27, (2S,2′S)-Neopentyl 2,2′-((((2R,3R,4S,5R)-5-(2-amino-6-methoxy-9H-purin-9-yl)-3-fluoro-4-hydroxy-4-methyltetrahydrofuran-2-yl)methoxy)phosphoryl)bis(azanediyl)dipropanoate] returned an IC50 in data set [1] of 2.1 µM. Also, in data set [2] (Huh7 HCV replicon cells (genotype 1b)), the CC50 at 72 h is greater than 100 µM.

Consider `COc1nc(N)nc2c1ncn2[C@@H]1O[C@H](COP(=O)(N[C@@H](C)C(=O)OCc2ccccc2)Oc2cccc3ccccc23)[C@H](F)[C@@]1(C)O` (stereo partly drawn) [Example 28, (2S)-Benzyl 2-((((2R,3S,4S,5R)-5-(2-amino-6-methoxy-9H-purin-9-yl)-3-fluoro-4-hydroxy-4-methyltetrahydrofuran-2-yl)methoxy)(naphthalen-1-yloxy)phosphorylamino)propanoate], for which the IC50 in data set [1] was greater than 40 µM. The same compound registered a CC50 at 72 h in data set [2] of 92 µM.

Take `COc1nc(N)nc2c1ncn2[C@@H]1O[C@H](COP(=O)(N[C@@H](C)C(=O)OCC(C)(C)C)Oc2cccc3ccccc23)[C@H](F)[C@@]1(C)O` (stereo partly drawn) [Example 29, (2S)-Neopentyl 2-((((2R,3S,4S,5R)-5-(2-amino-6-methoxy-9H-purin-9-yl)-3-fluoro-4-hydroxy-4-methyltetrahydrofuran-2-yl)methoxy)(naphthalen-1-yloxy)phosphorylamino)propanoate]: the IC50 in data set [1] worked out at 26 µM. Besides, the half-maximal cytotoxic concentration (CC50) at 72 h in data set [2] was determined as 40 µM.

In data set [1], `COc1nc(N)nc2c1ncn2[C@@H]1O[C@H](COP(=O)(N[C@H](C(=O)OCc2ccccc2)C(C)C)Oc2cccc3ccccc23)[C@H](F)[C@@]1(C)O` (stereo partly drawn) [Example 30, (2S)-Benzyl 2-((((2R,3S,4S,5R)-5-(2-amino-6-methoxy-9H-purin-9-yl)-3-fluoro-4-hydroxy-4-methyltetrahydrofuran-2-yl)methoxy)(naphthalen-1-yloxy)phosphorylamino)-3-methylbutanoate] displayed an IC50 of 11 µM. Besides, the CC50 at 72 h in data set [2] was determined as 19 µM.

In turn, `C[C@H](NP(=O)(OC[C@H]1O[C@@H](n2cnc3c(N)ncnc32)[C@](C)(O)[C@@H]1F)Oc1cccc2ccccc12)C(=O)OCC(C)(C)C` (stereo partly drawn) [Example 31, (2S)-Neopentyl 2-((((2R,3R,4S,5R)-5-(6-amino-9H-purin-9-yl)-3-fluoro-4-hydroxy-4-methyltetrahydrofuran-2-yl)methoxy)(naphthalen-1-yloxy)phosphorylamino)propanoate] gave an IC50 in data set [1] of 11 µM. In data set [2], this compound yielded a CC50 at 72 h of 31 µM.

In the case of `C[C@H](NP(=O)(OC[C@H]1O[C@@H](n2ccc(N)nc2=O)[C@](C)(O)[C@@H]1F)Oc1cccc2ccccc12)C(=O)OCC(C)(C)C` (stereo partly drawn) [Example 32, (2S)-Neopentyl 2-((((2R,3R,4S,5R)-5-(4-amino-2-oxopyrimidin-1(2H)-yl)-3-fluoro-4-hydroxy-4-methyltetrahydrofuran-2-yl)methoxy)(naphthalen-1-yloxy)phosphorylamino)propanoate], in data set [1], the concentration for half-maximal inhibition (IC50) was greater than 40 µM. In data set [2], this compound showed a CC50 at 72 h greater than 100 µM.

For the compound `C[C@H](NP(=O)(OC[C@H]1O[C@@H](n2ccc(=O)[nH]c2=O)[C@](C)(O)[C@@H]1F)Oc1cccc2ccccc12)C(=O)OCC(C)(C)C` (stereo partly drawn) [Example 33, (2 S)-Neopentyl 2-((((2R,3R,4S,5R)-5-(2,4-dioxo-3,4-dihydropyrimidin-1(2H)-yl)-3-fluoro-4-hydroxy-4-methyltetrahydrofuran-2-yl)methoxy)(naphthalen-1-yloxy)phosphorylamino)propanoate], the IC50 in data set [1] is greater than 40 µM. This compound also registered a CC50 at 72 h in data set [2] of 75 µM.
